Measurements reported in paper PMC11947619, “Molecular mechanism of Mad2 conformational conversion promoted by the Mad2‐interaction motif of Cdc20” (Protein Science : A Publication of the Protein Society, 2025).
Residues, ends and D or L forms follow the SMILES beside them.

Target: T1, O‐Mad2^WT (Homo sapiens, UniProt Q13257)
T1 construct: MD simulations on the full‐length O‐Mad2:C‐Mad2:Mad1^MIM complex; His6-DoubleStrep-TEV (N); made in house
Experiment: NMR: conversion of monomeric wild-type O-Mad2^WT
Type: biochemical
Conditions: O-Mad2^WT 300 μM, two-fold molar excess peptide, HSQC, 25°C
Method: FIGURE 6 O‐Mad2 retains its dynamic and structural properties in the O‐Mad2:C‐Mad2 dimer. (a, c) HSQC spectra of 300 μM wild‐type O‐Mad2^WT (a, light blue) and O‐Mad2^WT:(C‐Mad2^WT:Mad1^MIM) (c, blue). The schematics show the conformation of Mad2 as indicated by the tryptophan side‐chain resonances and their oligomeric states as determined by SEC‐MALS (insets). The SEC peaks are labeled with their molecular masses (kDa), where the theoretical molecular masses for monomeric and dimeric Mad2 are 23.5 and 47.0 kDa, respectively. For the dimeric samples, only one of the monomers was isotopically labeled and observable by NMR. Distinct chemical shift differences were also observed for Gly50 in O‐Mad2 and C‐Mad2, and its resonances are marked in the spectra. Cdc20^MIM‐123‐152 was added at two‐fold molar excess to O‐Mad2^WT (a), and O‐Mad2^WT:(C‐Mad2^WT:Mad1^MIM) (c). (b, d) This generated C‐Mad2^WT‐Cdc20^MIM (b, brown), and (C‐Mad2^WT:Cdc20^MIM):(C‐Mad2^WT:Mad1^MIM) (d, yellow), respectively. Their spectra are overlaid with that of C‐Mad2^L13A/R133A:Cdc20^MIM (red) for comparison. (e) Cα RMSF were determined from MD simulations at 300 K for monomeric O‐Mad2 (blue line) and O‐Mad2 in a O‐Mad2:C‐Mad2:Mad1^MIM dimer (brown dotted line). […]
For wild‐type Mad2, the protein was expressed as O‐Mad2^WT using the conditions described above. […]

T1 sequence (Q13257 whole entry): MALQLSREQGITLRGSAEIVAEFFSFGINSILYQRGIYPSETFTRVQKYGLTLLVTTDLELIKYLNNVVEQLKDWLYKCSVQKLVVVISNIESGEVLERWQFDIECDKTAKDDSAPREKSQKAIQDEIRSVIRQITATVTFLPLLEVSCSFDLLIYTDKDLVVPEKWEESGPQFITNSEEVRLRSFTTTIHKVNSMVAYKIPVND

CC[C@H](C)[C@H](NC(=O)[C@H](CCCCN)NC(=O)[C@H](C)NC(=O)[C@H](CCC(=O)O)NC(=O)[C@H](CCC(=O)O)NC(=O)[C@@H](NC(=O)[C@H](CC(=O)O)NC(=O)[C@@H](N)Cc1ccccc1)C(C)C)C(=O)N[C@@H](CC(C)C)C(=O)N[C@@H](CCCNC(=N)N)C(=O)N[C@@H](CC(C)C)C(=O)N[C@@H](CO)C(=O)NCC(=O)N[C@@H](CCCCN)C(=O)N1CCC[C@H]1C(=O)N[C@@H](CCC(N)=O)C(=O)N[C@@H](CC(N)=O)C(=O)N[C@@H](C)C(=O)N1CCC[C@H]1C(=O)N[C@@H](CCC(=O)O)C(=O)NCC(=O)N[C@@H](Cc1ccc(O)cc1)C(=O)N[C@@H](CCC(N)=O)C(=O)N[C@@H](CC(N)=O)C(=O)N[C@@H](CCCNC(=N)N)C(=O)N[C@@H](CC(C)C)C(=O)N[C@@H](CCCCN)C(=O)N[C@H](C(=O)N[C@@H](CC(C)C)C(=O)N[C@@H](Cc1ccc(O)cc1)C(=O)O)C(C)C [Cdc20^MIM‐123‐152] (H-FDVEEAKILRLSGKPQNAPEGYQNRLKVLY-OH; N-terminus and C-terminus assumed)
conversion of O-Mad2^WT, in words: converted to C‐Mad2 upon binding Cdc20^MIM
